Columns and labels:
human liver cancer HepG2 = assay: Liver cancer model, Experiment A: HepG2 xenograft; type: in vivo, Crl:SHO-PrkdcscidHrhr mice; conditions: 50 mg/kg i.v. six times every second day, 42th day
Procedure: (§1) Tumor size was measured using electronic calliper, tumor volume was calculated using the formula: (a^2×b)/2, where a=shorter diagonal of the tumor (mm) and b=longer diagonal of the tumor (mm). Inhibition of tumor growth was calculated using the formula:
(§2) TGI[%](Tumor growth inhibition)=(WT/WC)×100−100%
(§3) wherein WT is the average tumor volume in the treatment group, and WC is the average tumor volume in the control group.
On day 0 Crl:SHO-Prkdc^scidHr^hr mice were grafted subcutaneously (s.c.) in the right flank region with 7×10^6 of HepG2 cells suspended in 0.1 ml of the 3:1 mixture HBSS buffer:Matrigel using syringe with a 0.5×25 mm needle (Bogmark). When tumors reached the size of 64-529 mm^3 (day 25), mice were randomized to obtain the average size of tumors in the group of −230 mm^3 and assigned to treatment groups. The treatment groups were administered with the preparations of fusion protein of the invention of Ex. 16^b (80 mg/kg) and rhTRAIL114-281 (50 mg/kg) as a comparison and reference compound 5-FU (5-Fluorouracil, Sigma-Aldrich) (20 mg/kg). The preparations were administered intravenously (i.v.) six times every second day, 5-FU was applied intraperitoneally (i.p.). The control group received formulation buffer.
When the therapeutic group reached the average tumor size of ˜1000 mm^3, mice were sacrificed by cervical dislocation.

[1] = system: human colon cancer HCT116; assay: Colon cancer model, Experiment A: HCT116 xenograft; type: in vivo, Crl:SHO-PrkdcscidHrhr mice; conditions: 20 mg/kg i.v. 6 times every second day, 32 day
Procedure: as §1, §2, §3
On day 0 Crl:SHO-Prkdc^scidHr^hr mice were grafted subcutaneously (s.c.) in the right side with 5×10^6 of HCT116 cells suspended in 0.1 ml of HBSS buffer using syringe with a needle 0.5×25 mm (Bogmark). On the 18 day of the experiment mice were randomized to obtain the average size of tumors in the group of −400 mm^3 and assigned to treatment groups. The treatment groups were administered with the preparations of fusion protein of the invention of Ex. 11^a (35 mg/kg), and rhTRAIL114-281 (20 mg/kg) as a comparison against formulation buffer (5 mM NaH2PO4, 95 mM Na2HPO4, 200 mM NaCl, 5 mM glutathione, 0.1 mM ZnCl2, 10% glycerol, 80 mM saccharose, pH 8.0) as a control. The preparations were administered intravenously (i.v) 6 times once daily every second day. On the 32 day of the experiment mice were sacrificed by disruption of the spinal cord.

human lung cancer A549 = assay: Lung cancer model, Experiment A: A549 xenograft; type: in vivo; conditions: A549, Cby.Cg-foxn1(nu)/J mice; 20 mg/kg i.v. 6 times every second day; 35 day
Procedure: as §1, §2, §3
On day 0 Cby.Cg-foxn1(nu)/J mice were grafted subcutaneously (s.c.) in the right side with 5×10^6 of A549 cells suspended in 0.1 ml of the mixture HBSS:Matrigel 4:1 using syringe with a needle 0.5×25 mm (Bogmark). On the 19 day of the experiment mice were randomized to obtain the average size of tumors in the group of ˜75 mm3 and assigned to treatment groups. The treatment groups were administered with the preparations of fusion protein of the invention of Ex. 11^a (15 mg/kg), and rhTRAIL114-281 (20 mg/kg) as a comparison and water for injections as a control. The preparations were administered intravenously (i.v) 6 times once daily every second day. On the 35 day of the experiment mice were sacrificed by disruption of the spinal cord.

[2] = system: human liver cancer PLC/PRF/5; assay: Liver cancer model, Experiment B: PLC/PRF/5 xenograft; type: in vivo, Crl:SHO-PrkdcscidHrhr mice; conditions: rhTRAIL 50 mg/kg i.v. six times every second day, 43th day
Procedure: as §1, §2, §3
On day 0 Crl:SHO-Prkdc^scidHr^hr mice were grafted subcutaneously (s.c.) in the right flank region with 7×10^6 of PLC/PRF/5 cells suspended in 0.1 ml of the 3:1 mixture HBSS buffer:Matrigel using syringe with a 0.5×25 mm needle (Bogmark). When tumors reached the size of 72-536 mm^3 (day 29), mice were randomized to obtain the average size of tumors in the group of ˜205 mm^3 and assigned to treatment groups. The treatment groups were administered with the preparations of fusion protein of the invention of Ex. 16^b (50 mg/kg) and rhTRAIL114-281 (50 mg/kg) as a comparison and reference compound 5-FU (5-Fluorouracil, Sigma-Aldrich) (30 mg/kg). The preparations were administered intravenously (i.v.) six times every second day, except 5-FU, which was applied intraperitoneally (i.p.) in the schedule (q1dx5)×2. The control group received formulation buffer.
When an experimental group reached the average tumor size of ˜1000 mm^3, mice were sacrificed by cervical dislocation.

[3] = system: human colon cancer HCT116; assay: Colon cancer model, Experiment A1: HCT116 xenograft; type: in vivo, Crl:SHO-PrkdcscidHrhr mice; conditions: 65 mg/kg i.v. six times every second day, 24th day
Procedure: as §1, §2, §3
On day 0 Crl:SHO-Prkdc^scidHr^hr mice were grafted subcutaneously (s.c.) in the right flank region with 5×10^6 of HCT116 cells suspended in 0.1 ml of the 3:1 mixture HBSS buffer:Matrigel using syringe with a 0.5×25 mm needle (Bogmark). When tumors reached the size of 71-432 mm^3 (day 13), mice were randomized to obtain the average size of tumors in the group of ˜180 mm^3 and assigned to treatment groups. The treatment groups were administered with the preparations of fusion protein of the invention of Ex. 16^b (90 mg/kg) and rhTRAIL114-281 (65 mg/kg) as a comparison. The preparations were administered intravenously (i.v.) six times every second day. The control group received formulation buffer.
When an experimental group reached the average tumor size of −1000 mm^3, mice were sacrificed by cervical dislocation.

human colon cancer SW620 = assay: Colon cancer model, Experiment B: SW620 xenograft; type: in vivo, Crl:SHO-PrkdcscidHrhr mice; conditions: 30 mg/kg i.v. 6 times every second day, 31 day
Procedure: as §1, §2, §3
On day 0 Crl:SHO-Prkdc^scidHr^hr mice were grafted subcutaneously (s.c.) in the right side with 5×10^6 of SW620 cells suspended in 0.1 ml of the mixture HBSS:Matrigel 3:1 using syringe with a needle 0.5×25 mm (Bogmark). On the 17 day of the experiment mice were randomized to obtain the average size of tumors in the group of ˜320 mm^3 and assigned to treatment groups. The treatment groups were administered with the preparation of fusion protein of the invention of Ex. 16^a (20 mg/kg) and rhTRAIL114-281 (30 mg/kg) as a comparison against formulation buffer (19 mM NaH2PO4, 81 mM Na2HPO4, 50 mM NaCl, 5 mM glutathione, 0.1 mM ZnCl2, 10% glycerol, pH 7.4) as a control. The preparations were administered intravenously (i.v) 6 times once daily every second day. On the 31 day of the experiment mice were sacrificed by disruption of the spinal cord.

Substance: rhTRAIL114-281: recombinant human soluble TRAIL, amino acids 114-281 of hTRAIL, used as comparative reference
- TGI (tumor growth inhibition) relative to the control (human liver cancer HepG2): 23.2%
- TGI (tumor growth inhibition) relative to the control [1]: 5.6%
- TGI (tumor growth inhibition) relative to the control (human lung cancer A549): 0%
- TGI (tumor growth inhibition) relative to the control [2]: 25.2%
- TGI (tumor growth inhibition) relative to the control [3]: 37.9%
- TGI (tumor growth inhibition) relative to the control (human colon cancer SW620): −9%
